Experiment in all cases: growth of human tumour cells (NCI), 48 h
Assay [1] concerns MCF7 breast.
Assay [2] relates to 786-0 renal.
Assay [3] has as its system NCI-H460 lung.
For assay [4], the system named is LOX IMVI melanoma.
The test system of assay [5] is SF-268 CNS.
Assay [6] has as its system M14 melanoma.
Assay [7] has as its system SN12C renal.
Assay [8] concerns K-562 leukemia.
The subject of assay [9] is SF-295 CNS.
Assay [10] has as its system IGROV1 ovarian.

Structures are written as SMILES.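 In this assay, cells in 96-well plates receive the compound at five concentrations for 48 hours. Endpoints are linearly interpolated between the surrounding concentrations. The concentration for 50% growth inhibition is given as GI50. TGI: concentration producing complete growth inhibition.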 Some results are limits rather than exact numbers.

Take `COc1cc2c3c(n(CCCN=[N+]=[N-])c(=O)c2cc1OC)-c1ccccc1C3=O`: the GI50 was 5.35 µM in [1]; 4.68 µM in assay [2]; 5.2 µM in assay [3]; 1.33 µM in assay [4]; above 100 µM in assay [5]; 1.82 µM in [6]. Further, the GI50 in assay [7] was 13.7 µM; in assay [8] it was 3.48 µM; in [9], 2.87 µM. Also, the TGI was above 100 µM in assay [1]; 69.2 µM in assay [2]; above 100 µM in [3]; 9.14 µM in [4]; above 100 µM in [5]; 13.9 µM in [6]. The TGI in assay [7] was above 100 µM; in [8] it was above 100 µM; in assay [9], 9.86 µM.

Turning to `COc1ccc(O)c(/C=N\Nc2ccccc2)c1`, the TGI was above 100 µM in assay [1]; above 100 µM in assay [2]; above 100 µM in [3]; 13 µM in [4]; above 100 µM in [5]; 73.2 µM in assay [6]. Also, the TGI in assay [7] and in [8] was above 100 µM each time.

`COc1ccc(-c2cnc(-c3ccc(OC)cc3)n2-c2cc(OC)c(OC)c(OC)c2)cc1`: the GI50 in assay [1] was 38.5 µM; in assay [10], 28.3 µM; in assay [2] it was 24.2 µM; in assay [3] it was 30.7 µM; in assay [4] it was 34.5 µM; in [5], 30.6 µM. Besides, the GI50 is 44.7 µM in assay [6], 20.8 µM in [7] and 22.1 µM in [9]. In addition, the TGI is above 100 µM in [1]; above 100 µM in assay [10]; 61.4 µM in assay [2]; above 100 µM in assay [3]; above 100 µM in assay [4]; above 100 µM in [5]. Besides, the TGI is above 100 µM in assay [6], 56.7 µM in [7] and 61.1 µM in [9].

On to `Cc1cccc2c(=O)c3c(sc12)c(NCCCNCCO)nc1ccccc13`, for which the GI50 was 1.33 µM in assay [1]; 1.34 µM in [10]; 1.75 µM in assay [2]; 1.15 µM in assay [3]; 1.38 µM in assay [4]; 1.4 µM in [5]. Also, the GI50 in assay [6] was 1.81 µM; in assay [7], 1.56 µM; in assay [9], 1.72 µM. In addition, the TGI in assay [1] amounted to 2.87 µM; in assay [10] it was 2.96 µM; in [2], 3.4 µM; in assay [3], 2.55 µM; in assay [4], 2.76 µM; in assay [5], 2.97 µM. Besides, the TGI in assay [6] was 3.56 µM; in [7], 3.12 µM; in [9], 3.18 µM.

Turning to `Cc1[nH]c2ccccc2c1CO`, the GI50 in assay [1] is 21.3 µM; in assay [2] it was 24.5 µM; in assay [3] it was 16.9 µM; in assay [5] it was 10.2 µM; in assay [6], 16.4 µM; in [7] it was 15.8 µM. In addition, the GI50 in assay [8] is 18.6 µM; in assay [9] it was 22.5 µM. Besides, the TGI stood at 51.5 µM in [1]; 64.8 µM in assay [2]; 31.6 µM in [3]; 22.9 µM in assay [5]; 34.9 µM in assay [6]; 32.1 µM in assay [7]. In addition, the TGI in assay [8] worked out at 61.4 µM; in [9], 44.7 µM.

With `CCCCN(CCCC)P(=O)(Oc1ccccc1)Oc1ccccc1`, the GI50 is 4.83 µM in [1]; 12.3 µM in assay [2]; 5.24 µM in assay [3]; 12.9 µM in [4]; 8.86 µM in [5]; 11.6 µM in [6]. Moreover, the GI50 in [7] was 5.53 µM; in assay [8] it was 7.01 µM; in assay [9], 3.49 µM. Moreover, the TGI in assay [1] came to 18.6 µM; in assay [2], 25.2 µM; in assay [3], 18.9 µM; in assay [4] it was 26.5 µM; in assay [5], 21.9 µM; in assay [6] it was 25.6 µM. In addition, the TGI in assay [7] is 19.7 µM; in [8], above 100 µM; in [9], 16.1 µM.

For `Cc1ccc(-c2cc(C(=O)Nc3ccc(S(=O)(=O)N4CCCCC4)cc3)[nH]n2)c(O)c1`, the GI50 in assay [1], in [10], in [2], in [3], in [4] and in assay [5] was above 100 µM throughout. For the same compound, the GI50 in assay [7] was above 100 µM; in assay [8] it was 74.1 µM; in assay [9], above 100 µM. The TGI in [1], in assay [10], in assay [2], in assay [3], in assay [4] and in assay [5] was above 100 µM in each case. The TGI in assay [7], in [8] and in [9] was above 100 µM in each case.

Take `COc1cc2c3c(n(CCCN=[N+]=[N-])c(=O)c2cc1OC)-c1ccc(F)cc1C3=O`: the GI50 in assay [1] was 3.78 µM; in assay [2], 2.88 µM; in assay [3], 1.87 µM; in assay [4] it was 4.04 µM; in [5], 3.8 µM; in assay [6], 5.16 µM. Further, the figures for the GI50 in assay [7], in [8] and in assay [9] were 8.26 µM, 19.3 µM and 2.62 µM, respectively. The TGI in [1] was above 100 µM; in [2], 14.7 µM; in assay [3], 13.3 µM; in assay [4], above 100 µM; in assay [5], above 100 µM; in assay [6], above 100 µM. Moreover, the TGI is above 100 µM in assay [7], above 100 µM in [8] and 7.97 µM in [9].

For `COc1cc(CSc2nc3ccc(Cl)cc3c(=O)n2Cc2ccccc2)cc(OC)c1OC`, the GI50 in assay [1] was 1.34 µM; in [10], 10.2 µM; in [2], 7.62 µM; in [3], 3.33 µM; in [4], 5.97 µM; in assay [5], 7.33 µM. Further, the results for the GI50 in [6], in [7] and in assay [8] were 4.26 µM, 5.2 µM and 1.19 µM, respectively. In addition, the TGI in assay [1] was 45.5 µM; in assay [10], above 100 µM; in [2], 41.3 µM; in assay [3], above 100 µM; in assay [4] it was above 100 µM; in assay [5], above 100 µM. In addition, the TGI in assay [6], in assay [7] and in assay [8] was above 100 µM each time.

Source of the values: PubChem BioAssay (NCI).
